From ChEMBL document CHEMBL1201862, “PubChem BioAssay data set” (2004)
“And” between values parts separate entries of the source, which are not always exact repeats. Equal entries are not always repeated.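 Tested at 5 concentrations; 48 h exposure; 96-well plates; endpoints linearly interpolated, else capped at highest concentration. The concentration for 50% growth inhibition is given as GI50.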 The source made the active and inactive calls. Rule as the data show it: active = GI50 up to about 1.1 µM and inactive = higher.

Assays:
Assay in all cases: NCI tumour cell line growth inhibition, 48 h
786-0 = tested on: 786-0
A498 = tested on: A498
A549 = tested on: A549
ACHN = tested on: ACHN
BT-549 = tested on: BT-549
CAKI-1 = tested on: CAKI-1
CCRF-CEM = tested on: CCRF-CEM
COLO 205 = tested on: COLO 205
DU-145 = tested on: DU-145
EKVX = tested on: EKVX
HCC 2998 = tested on: HCC 2998
HCT-116 = tested on: HCT-116
HCT-15 = tested on: HCT-15
HL-60 = tested on: HL-60
HOP-62 = tested on: HOP-62
HT-29 = tested on: HT-29
Hs-578T = tested on: Hs-578T
IGROV-1 = tested on: IGROV-1
K562 = tested on: K562
KM12 = tested on: KM12
LOX IMVI = tested on: LOX IMVI
M14 = tested on: M14
MCF7 = tested on: MCF7
MDA-MB-231 = tested on: MDA-MB-231
MDA-MB-435 = tested on: MDA-MB-435
MOLT-4 = tested on: MOLT-4
Malme-3M = tested on: Malme-3M
NCI-H226 = tested on: NCI-H226
NCI-H23 = tested on: NCI-H23
NCI-H460 = tested on: NCI-H460
NCI-H522 = tested on: NCI-H522
NCI/ADR-RES = tested on: NCI/ADR-RES
OVCAR-3 = tested on: OVCAR-3
OVCAR-4 = tested on: OVCAR-4
OVCAR-5 = tested on: OVCAR-5
OVCAR-8 = tested on: OVCAR-8
RPMI-8226 = tested on: RPMI-8226
SF-268 = tested on: SF-268
SF-295 = tested on: SF-295
SF-539 = tested on: SF-539
SK-MEL-28 = tested on: SK-MEL-28
SK-MEL-2 = tested on: SK-MEL-2
SK-MEL-5 = tested on: SK-MEL-5
SK-OV-3 = tested on: SK-OV-3
SN12C = tested on: SN12C
SNB-19 = tested on: SNB-19
SNB-75 = tested on: SNB-75
SR = tested on: SR
SW-620 = tested on: SW-620
T47D = tested on: T47D
TK-10 = tested on: TK-10
U-251 = tested on: U-251
UACC-257 = tested on: UACC-257
UACC-62 = tested on: UACC-62
UO-31 = tested on: UO-31
HOP-92 = tested on: HOP-92
MDA-N = tested on: MDA-N
PC-3 = tested on: PC-3
RXF 393 = tested on: RXF 393

SMILES: c1ccc(-c2cnc3nc4ccccc4nc3n2)cc1
- GI50 (786-0): 3.9 µM (inactive)
- GI50 (A498): 3.33 µM (inactive)
- GI50 (A549): 10 µM (inactive)
- GI50 (ACHN): 1.22 µM (inactive)
- GI50 (BT-549): 3.43 µM (inactive)
- GI50 (CAKI-1): 0.942 µM (active)
- GI50 (CCRF-CEM): 301 nM (active)
- GI50 (COLO 205): 2.15 µM (inactive)
- GI50 (DU-145): 3.83 µM (inactive)
- GI50 (EKVX): 2.88 µM (inactive)
- GI50 (HCC 2998): 11.7 µM (inactive)
- GI50 (HCT-116): 2.86 µM (inactive)
- GI50 (HCT-15): 2.5 µM
- GI50 (HL-60): 1.82 µM (inactive)
- GI50 (HOP-62): 13.9 µM (inactive)
- GI50 (HT-29): 7.05 µM (inactive)
- GI50 (Hs-578T): 3.78 µM (inactive)
- GI50 (IGROV-1): 3.31 µM (inactive)
- GI50 (K562): 2.51 µM (inactive)
- GI50 (KM12): 1.22 µM (inactive)
- GI50 (LOX IMVI): 3.25 µM (inactive)
- GI50 (M14): 6.11 µM (inactive)
- GI50 (MCF7): 1.82 µM (inactive)
- GI50 (MDA-MB-231): 2.69 µM (inactive)
- GI50 (MDA-MB-435): 1.58 µM (inactive)
- GI50 (MOLT-4): 1.31 µM (inactive)
- GI50 (Malme-3M): 2.45 µM (inactive)
- GI50 (NCI-H226): 3.23 µM (inactive)
- GI50 (NCI-H23): 3.82 µM (inactive)
- GI50 (NCI-H460): 2.96 µM (inactive)
- GI50 (NCI-H522): 3.5 µM (inactive)
- GI50 (NCI/ADR-RES): 3.81 µM (inactive)
- GI50 (OVCAR-3): 1.16 µM (inactive)
- GI50 (OVCAR-4): 1.72 µM (inactive)
- GI50 (OVCAR-5): 13.6 µM (inactive)
- GI50 (OVCAR-8): 1.98 µM (inactive)
- GI50 (RPMI-8226): 1.32 µM (inactive)
- GI50 (SF-268): 4.29 µM (inactive)
- GI50 (SF-295): 6.11 µM (inactive)
- GI50 (SF-539): 3.25 µM (inactive)
- GI50 (SK-MEL-28): 14.7 µM (inactive)
- GI50 (SK-MEL-2): 2.88 µM (inactive)
- GI50 (SK-MEL-5): 3.05 µM (inactive)
- GI50 (SK-OV-3): 2.87 µM (inactive)
- GI50 (SN12C): 9.08 µM (inactive)
- GI50 (SNB-19): 13.7 µM (inactive)
- GI50 (SNB-75): 2.66 µM (inactive)
- GI50 (SR): 0.826 µM (active)
- GI50 (SW-620): 2.81 µM (inactive)
- GI50 (T47D): 3.85 µM (inactive)
- GI50 (TK-10): 4.2 µM (inactive)
- GI50 (U-251): 4.94 µM (inactive)
- GI50 (UACC-257): 2.25 µM (inactive)
- GI50 (UACC-62): 2.85 µM (inactive)
- GI50 (UO-31): 4.58 µM (inactive)

SMILES: CCOC(=O)[C@]1(OC(C)=O)C[C@H](OC(C)=O)[C@@H](C(F)COP(=O)(OCc2ccccc2)OCc2ccccc2)O1 (some centres not stated)
- GI50 (A549): > 100 µM (inactive)
- GI50 (BT-549): > 100 µM (inactive)
- GI50 (CAKI-1): > 100 µM (inactive)
- GI50 (CCRF-CEM): 72.9 µM (inactive) and 49 µM (inactive)
- GI50 (DU-145): > 100 µM (inactive)
- GI50 (HCC 2998): 76.2 µM (inactive)
- GI50 (HOP-62): > 100 µM (inactive)
- GI50 (HOP-92): 18.5 µM (inactive)
- GI50 (Hs-578T): > 100 µM (inactive)
- GI50 (K562): 71.4 µM (inactive)
- GI50 (MDA-MB-231): 57.3 µM (inactive)
- GI50 (MDA-N): > 100 µM (inactive)
- GI50 (MOLT-4): > 100 µM (inactive)
- GI50 (NCI-H226): > 100 µM (inactive)
- GI50 (NCI/ADR-RES): > 100 µM (inactive)
- GI50 (OVCAR-8): > 100 µM (inactive)
- GI50 (PC-3): 32.4 µM (inactive) and 58.6 µM (inactive)
- GI50 (RPMI-8226): 19.8 µM (inactive) and 25.9 µM (inactive)
- GI50 (SF-268): > 100 µM (inactive)
- GI50 (SF-539): > 100 µM (inactive)
- GI50 (SK-MEL-28): > 100 µM (inactive)
- GI50 (SK-MEL-5): > 100 µM (inactive)
- GI50 (SK-OV-3): > 100 µM (inactive)
- GI50 (SN12C): > 100 µM (inactive)
- GI50 (SNB-75): > 100 µM (inactive)
- GI50 (UACC-257): 76.2 µM (inactive)

SMILES: O=C(CCC1OCCO1)Nc1cc(NCc2ccccc2)ccc1OCc1ccccc1
- GI50 (786-0): > 100 µM (inactive)
- GI50 (A498): 30.5 µM (inactive)
- GI50 (A549): 30.6 µM (inactive)
- GI50 (ACHN): 33.5 µM (inactive)
- GI50 (BT-549): 38.5 µM (inactive)
- GI50 (CAKI-1): 20.7 µM (inactive)
- GI50 (CCRF-CEM): 17000 nM (inactive)
- GI50 (COLO 205): 22.3 µM (inactive)
- GI50 (DU-145): 50.5 µM (inactive)
- GI50 (EKVX): 21.2 µM (inactive)
- GI50 (HCC 2998): 33 µM (inactive)
- GI50 (HCT-116): 48.9 µM (inactive)
- GI50 (HCT-15): 35.1 µM
- GI50 (HL-60): 38.5 µM (inactive)
- GI50 (HOP-62): > 100 µM (inactive)
- GI50 (HOP-92): 17.8 µM (inactive)
- GI50 (HT-29): 27.7 µM (inactive)
- GI50 (Hs-578T): 34.3 µM (inactive)
- GI50 (IGROV-1): 41.6 µM (inactive)
- GI50 (K562): 28.9 µM (inactive)
- GI50 (KM12): 30.1 µM (inactive)
- GI50 (LOX IMVI): 33.7 µM (inactive)
- GI50 (M14): 59.6 µM (inactive)
- GI50 (MCF7): 33.6 µM (inactive)
- GI50 (MDA-MB-231): 42 µM (inactive)
- GI50 (MDA-MB-435): 23.6 µM (inactive)
- GI50 (MOLT-4): 20.5 µM (inactive)
- GI50 (Malme-3M): 20.6 µM (inactive)
- GI50 (NCI-H226): 38.4 µM (inactive)
- GI50 (NCI-H23): 31.7 µM (inactive)
- GI50 (NCI-H460): 39.1 µM (inactive)
- GI50 (NCI-H522): 23.7 µM (inactive)
- GI50 (NCI/ADR-RES): 43.1 µM (inactive)
- GI50 (OVCAR-4): 31.8 µM (inactive)
- GI50 (OVCAR-5): 46.9 µM (inactive)
- GI50 (OVCAR-8): 18.9 µM (inactive)
- GI50 (RPMI-8226): 20.1 µM (inactive)
- GI50 (RXF 393): 28.8 µM (inactive)
- GI50 (SF-268): 63.8 µM (inactive)
- GI50 (SF-295): 30.2 µM (inactive)
- GI50 (SF-539): 30.4 µM (inactive)
- GI50 (SK-MEL-28): 64.7 µM (inactive)
- GI50 (SK-MEL-2): 21 µM (inactive)
- GI50 (SK-MEL-5): 18.4 µM (inactive)
- GI50 (SK-OV-3): 68.5 µM (inactive)
- GI50 (SN12C): 46.8 µM (inactive)
- GI50 (SNB-19): 40.3 µM (inactive)
- GI50 (SNB-75): 32.5 µM (inactive)
- GI50 (SR): 27.9 µM (inactive)
- GI50 (SW-620): 42.1 µM (inactive)
- GI50 (T47D): 69.5 µM (inactive)
- GI50 (TK-10): 26.6 µM (inactive)
- GI50 (U-251): 37.1 µM (inactive)
- GI50 (UACC-257): 20.2 µM (inactive)
- GI50 (UACC-62): 28.1 µM (inactive)
- GI50 (UO-31): 33.9 µM (inactive)
